Publication PMC8955485, “Journey on VX-809-Based Hybrid Derivatives towards Drug-like F508del-CFTR Correctors: From Molecular Modeling to Chemical Synthesis and Biological Assays” (Pharmaceuticals, 2022)
Values joined by “and” are separate entries in the source; they are usually repeats but may differ in a detail not shown here. Equal entries are not always repeated. Where two headings read alike, the source gives them in different places.

How the values were obtained:
[1] = biological target: T1, F508del-CFTR (Homo sapiens, UniProt P13569, DEL508-508); assay: HS-YFP functional assay for F508del-CFTR correctors in CFBE41o- cells; assay type: cell-based; set-up: expressed in transfected cells; settings: for EC50: CFBE41o- cells stably expressing F508del-CFTR and HS-YFP, 24 h incubation, stimulation with forskolin 20 µM plus VX-770 1 µM; for F508del-CFTR corrector activity (in words): CFBE41o- cells, HS-YFP assay, 24 h
T1 sequence (P13569 with tags, fused parts or gaps DEL508-508): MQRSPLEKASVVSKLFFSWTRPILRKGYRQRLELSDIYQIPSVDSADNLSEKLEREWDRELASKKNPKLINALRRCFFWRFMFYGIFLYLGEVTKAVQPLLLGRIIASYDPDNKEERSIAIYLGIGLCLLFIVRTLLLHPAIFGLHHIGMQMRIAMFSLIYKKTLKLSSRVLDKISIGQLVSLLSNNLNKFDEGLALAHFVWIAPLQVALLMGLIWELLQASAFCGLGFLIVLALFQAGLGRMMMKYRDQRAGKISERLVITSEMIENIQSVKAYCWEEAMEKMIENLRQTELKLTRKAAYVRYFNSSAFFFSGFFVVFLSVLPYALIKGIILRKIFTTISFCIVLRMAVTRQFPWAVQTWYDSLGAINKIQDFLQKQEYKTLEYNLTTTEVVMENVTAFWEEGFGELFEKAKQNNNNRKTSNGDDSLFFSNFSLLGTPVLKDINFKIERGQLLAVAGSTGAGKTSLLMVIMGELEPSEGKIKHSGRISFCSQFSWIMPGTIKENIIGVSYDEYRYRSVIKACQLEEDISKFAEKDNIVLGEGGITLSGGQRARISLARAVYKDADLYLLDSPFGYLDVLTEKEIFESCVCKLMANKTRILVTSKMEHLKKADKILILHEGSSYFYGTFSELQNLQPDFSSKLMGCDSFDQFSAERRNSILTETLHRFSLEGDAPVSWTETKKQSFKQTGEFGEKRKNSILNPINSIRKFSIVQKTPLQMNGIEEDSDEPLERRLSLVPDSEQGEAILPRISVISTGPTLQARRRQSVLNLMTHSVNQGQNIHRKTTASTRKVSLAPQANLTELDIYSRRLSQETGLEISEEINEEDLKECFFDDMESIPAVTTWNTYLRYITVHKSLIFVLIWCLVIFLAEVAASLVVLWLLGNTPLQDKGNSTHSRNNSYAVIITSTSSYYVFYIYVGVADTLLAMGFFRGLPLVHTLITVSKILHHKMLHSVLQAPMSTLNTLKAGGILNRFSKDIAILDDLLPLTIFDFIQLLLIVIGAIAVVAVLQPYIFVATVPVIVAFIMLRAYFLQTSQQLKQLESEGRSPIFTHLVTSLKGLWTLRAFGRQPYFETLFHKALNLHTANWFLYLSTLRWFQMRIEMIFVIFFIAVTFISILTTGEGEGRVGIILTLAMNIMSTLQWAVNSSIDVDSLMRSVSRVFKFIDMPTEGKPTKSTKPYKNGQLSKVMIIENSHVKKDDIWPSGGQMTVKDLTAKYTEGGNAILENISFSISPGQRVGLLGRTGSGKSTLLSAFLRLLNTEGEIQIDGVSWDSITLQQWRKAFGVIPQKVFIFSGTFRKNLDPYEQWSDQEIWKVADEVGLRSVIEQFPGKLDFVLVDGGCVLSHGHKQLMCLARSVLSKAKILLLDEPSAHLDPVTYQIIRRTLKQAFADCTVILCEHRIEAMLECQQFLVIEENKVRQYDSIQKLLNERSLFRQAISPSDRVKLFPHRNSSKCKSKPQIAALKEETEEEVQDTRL
Description: The ability of these compounds to correct the basic defects related to F508del mutant was evaluated on immortalized CFBE41o-bronchial epithelial cells stably expressing F508del-CFTR and the halide sensitive yellow fluorescent protein (HS-YFP).
The measurements of the rate of HS-YFP quenching caused by iodide influx allowed us to determine the activity of F508del-CFTR, after incubation with the compounds, as cited. Activity was then compared to that of cells treated with the corrector VX-809 (1 µM) or with vehicle alone (DMSO).
Within the novel third series of hybrids herein proposed, based on their potency and efficacy in terms of CFTR rescue, we selected six compounds and determined the dose–response relationships (Figure 6). To this aim, F508del-CFTR expressing CFBE41o-cells were treated for 24 h with our hybrids 9b, 9f, 9g, 9h, 9j, and 9y and then mutant CFTR activity was measured by using the YFP functional assay (see Materials and Methods section for details).
Immortalized bronchial epithelial CFBE41o-cells with stable co-expression of the halide-sensitive yellow fluorescent protein (HS-YFP) and of F508del-CFTR were cultured using MEM medium supplemented with 10% fetal calf serum, 100 U/mL penicillin, 2 mM L-glutamine, and […] streptomycin.
CFBE41o-cells co-expressing mutants CFTR and HS-YFP were plated (50,000 cells/well) on clear-bottom 96-well black microplates (Corning Life Sciences, Acton, MA) and grown at 37 °C in 5% CO2 for 24 h. For the corrector assay, CFBE41o-cells were treated for further 24 h with compounds as indicated. The following day, prior to the assay, the culture medium was removed and cells were stimulated for 30 min at 37 °C with 60 µL PBS (containing 137 mM NaCl, 2.7 mM KCl, 8.1 mM Na2HPO4, 1.5 mM KH2PO4, 1mM CaCl2, and 0.5 mM MgCl2) plus forskolin (20 µM) and VX-770 (1 µM).
Microplates containing CFBE41o-cells were then transferred to a plate reader (FluoStar Galaxy; BMG Labtech, Offenburg, Germany) equipped with excitation (HQ500/20X: 500 ± 10 nm) and emission (HQ535/30M: 535 ± 15 nm) filters for YFP (Chroma Technology, Brattleboro, VT, USA). During the assay fluorescence was measured continuously for 14 s with 2 s before and 12 s after injection of an iodide containing solution (165 µL of a modified PBS containing I^- instead of Cl^-; final I^- concentration in the well: 100 mM).
Fluorescence data were normalized for the initial value and fluorescence quenching rate following I^- influx, were determined by fitting the final 10 s of data for each well with an exponential function to extrapolate initial slope (dF/dt).
To evaluate the dose–response relationships, activity slopes obtained for each compound at the different concentrations were fitted with the Hill equation using the Igor software (WaveMetrics) to extrapolate EC50, maximal effect, and Hill coefficient.

[2] = biological target: T1, F508del-CFTR; set-up: expressed in transfected cells; settings: first series of hybrids, cited from earlier work; for pEC50: from EC50 of ref 27

EC50 [1] [nM] | Compound | EC50 [2] | pEC50 [2] [M] | F508del-CFTR corrector activity (in words) [1]
100 | COc1ccc(-c2nc(NC(=O)C3(c4ccc5c(c4)OCO5)CC3)sc2C(=O)c2ccc(SC)cc2)cc1 [Compound 9d] | – | – | –
120 | COc1ccc(-c2nc(NC(=O)C3(c4ccc5c(c4)OCO5)CC3)sc2C(=O)c2cccc(OC)c2)cc1 [Compound 9h] | – | – | –
– | Cc1sc(NC(=O)C2(c3ccc4c(c3)OC(F)(F)O4)CC2)nc1-c1cccc(Cl)c1 [Compound 6b] | 5400 nM | 5.27 | –
740 | COc1cccc(-c2nc(NC(=O)C3(c4ccc5c(c4)OCO5)CC3)sc2C(=O)c2ccc(-c3ccccc3)cc2)c1 [Compound 9m] | – | – | –
– | O=C(Nc1nc(-c2ccc(Br)cc2)cs1)C1(c2ccc3c(c2)OCO3)CC1 [Compound 4b] | 4900 nM | 5.31 | –
– | Cc1sc(NC(=O)C2(c3ccc4c(c3)OCO4)CC2)nc1-c1cccc(O)c1 [Compound 5c] | 1200 nM | 5.92 | –
– | Cc1sc(NC(=O)C2(c3ccc4c(c3)OCO4)CC2)nc1-c1cccc(Cl)c1 [Compound 3c] | 2300 nM | 5.64 | –
– | Cc1sc(NC(=O)C2(c3ccc4c(c3)OCO4)CC2)nc1-c1ccc(Cl)cc1 [Compound 3a] | 2900 nM | 5.54 | –
– | O=C(Nc1nc(-c2cccc(O)c2)cs1)C1(c2ccc3c(c2)OC(F)(F)O3)CC1 [Compound 6c] | 1300 nM | 5.89 | –
– | O=C(c1ccccc1)c1sc(NC(=O)C2(c3ccc4c(c3)OCO4)CC2)nc1-c1ccccc1 [Compound 2a] | 87 nM | 7.06 | –
1520 | COc1cccc(C(=O)c2sc(NC(=O)C3(c4ccc5c(c4)OCO5)CC3)nc2-c2cccnc2)c1 [Compound 9w] | – | – | –
– | O=C(Nc1nc(-c2ccc(O)cc2)cs1)C1(c2ccc3c(c2)OCO3)CC1 [Compound 5a] | 1800 nM | 5.74 | –
– | CCOC(=O)c1sc(NC(=O)C2(c3ccc4c(c3)OCO4)CC2)nc1-c1ccc(Br)cc1 [Compound 2b] | 300 nM | 6.52 | –
190 | COc1ccc(C(=O)c2sc(NC(=O)C3(c4ccc5c(c4)OCO5)CC3)nc2-c2cccc(OC)c2)cc1 [Compound 9i, 1-(benzo[d][1,3]dioxol-5-yl)-N-(5-(4-methoxybenzoyl)-4-(3-methoxyphenyl)thiazol-2-yl)cyclopropane-1-carboxamide] | – | – | –
– | Cc1sc(NC(=O)C2(c3ccc4c(c3)OCO4)CC2)nc1-c1ccccc1 [Compound 3d] | 1600 nM | 5.80 | –
140 | COc1ccc(-c2nc(NC(=O)C3(c4ccc5c(c4)OCO5)CC3)sc2C(=O)c2ccc(-c3ccccc3)cc2)cc1 [Compound 9f] | – | – | –
640 | O=C(c1ccc(-c2ccccc2)cc1)c1sc(NC(=O)C2(c3ccc4c(c3)OCO4)CC2)nc1-c1ccc(Cl)cc1 [Compound 9u, N-(5-([1,1′-biphenyl]-4-carbonyl)-4-(4-chlorophenyl)thiazol-2-yl)-1-(benzo[d][1,3]dioxol-5-yl)cyclopropane-1-carboxamide] | – | – | –
– | O=C(O)c1ccc(-c2csc(NC(=O)C3(c4ccc5c(c4)OCO5)CC3)n2)cc1 [Compound 5e] | > 5000 nM and 5000 nM | 5.30 | –
220 | COc1ccc(C(=O)c2sc(NC(=O)C3(c4ccc5c(c4)OCO5)CC3)nc2-c2ccccc2OC)cc1 [Compound 9p, 1-(benzo[d][1,3]dioxol-5-yl)-N-(5-(4-methoxybenzoyl)-4-(2-methoxyphenyl)thiazol-2-yl)cyclopropanecarboxamide] | – | – | –
210 | COc1cccc(C(=O)c2sc(NC(=O)C3(c4ccc5c(c4)OCO5)CC3)nc2-c2cccc(OC)c2)c1 [Compound 9o] | – | – | –
– | O=C(Nc1nc(-c2ccc(I)cc2)cs1)C1(c2ccc3c(c2)OCO3)CC1 [Compound 4d] | 1200 nM | 5.92 | –
– | O=C(Nc1nc(-c2cccc(O)c2)cs1)C1(c2ccc3c(c2)OCO3)CC1 [Compound 5b] | 2300 nM | 5.64 | –
– | O=C(Nc1nc(-c2cccc(Cl)c2)cs1)C1(c2ccc3c(c2)OCO3)CC1 [Compound 4c] | 8200 nM | 5.09 | –

EC50 [1] [nM] | Compound | EC50 [2] | pEC50 [2] [M] | F508del-CFTR corrector activity (in words) [1]
350 | COc1ccc(-c2nc(NC(=O)C3(c4ccc5c(c4)OCO5)CC3)sc2C(=O)c2ccccc2)cc1 [Compound 9a, 1-(benzo[d][1, 3]dioxol-5-yl)-N-(5-benzoyl-4-(4-methoxyphenyl)thiazol-2-yl)cyclopropane-1-carboxamide] | – | – | –
– | CC(C)(Oc1ccc2c(c1)OCO2)C(=O)Nc1nc(-c2ccccc2)c(C(=O)c2ccccc2)s1 [Compound 17] | – | – | lowered efficacy
360 | COc1cccc(-c2nc(NC(=O)C3(c4ccc5c(c4)OCO5)CC3)sc2C(=O)c2ccc(SC)cc2)c1 [Compound 9k] | – | – | –
– | O=C(/C=C\c1ccc2c(c1)OCO2)Nc1nc(-c2ccccc2)c(C(=O)c2ccccc2)s1 [Compound 14b] | – | – | not tolerated
300 | CSc1ccc(C(=O)c2sc(NC(=O)C3(c4ccc5c(c4)OCO5)CC3)nc2-c2ccc(SC)cc2)cc1 [Compound 9z] | – | – | –
560 | CCOC(=O)c1ccc(C(=O)c2sc(NC(=O)C3(c4ccc5c(c4)OCO5)CC3)nc2-c2ccc(OC)cc2)cc1 [Compound 9e] | – | – | –
76 | COC(=O)c1ccc(-c2nc(NC(=O)C3(c4ccc5c(c4)OCO5)CC3)sc2C(=O)c2ccc(SC)cc2)cc1 [Compound 9y] | – | – | –
– | O=C(Nc1nc(-c2ccc(Cl)cc2)cs1)C1(c2ccc3c(c2)OCO3)CC1 [Compound 4a] | 2900 nM | 5.54 | –
– | CC(Cc1ccc2c(c1)OCO2)C(=O)Nc1nc(-c2ccccc2)c(C(=O)c2ccccc2)s1 (centres unmarked) [Compound 13b] | – | – | not tolerated
– | Cc1sc(NC(=O)C2(c3ccc4c(c3)OC(F)(F)O4)CC2)nc1-c1ccc(Br)cc1 [Compound 6a] | 3800 nM | 5.42 | –
– | Cc1sc(NC(=O)C2(c3ccc4c(c3)OCO4)CC2)nc1-c1ccc(F)cc1 [Compound 3e] | 900 nM | 6.05 | –
140 | COc1ccc(-c2nc(NC(=O)C3(c4ccc5c(c4)OCO5)CC3)sc2C(=O)c2ccc(OC(F)(F)F)cc2)cc1 [Compound 9c] | – | – | –
– | O=C(Nc1nc(-c2cccc(F)c2)cs1)C1(c2ccc3c(c2)OCO3)CC1 [Compound 4e] | 2100 nM | 5.68 | –
– | CCOC(=O)c1sc(NC(=O)C2(c3ccc4c(c3)OCO4)CC2)nc1-c1ccc(Cl)cc1 [Compound 2d] | 900 nM | 6.05 | –
– | Cc1sc(NC(=O)C2(c3ccc4c(c3)OCO4)CC2)nc1-c1ccc(Br)cc1 [Compound 3b] | 1900 nM | 5.72 | –
600 | COc1cccc(-c2nc(NC(=O)C3(c4ccc5c(c4)OCO5)CC3)sc2C(=O)c2ccc(N3CCCC3)cc2)c1 [Compound 9n] | – | – | –
130 | O=C(c1ccc(-c2ccccc2)cc1)c1sc(NC(=O)C2(c3ccc4c(c3)OCO4)CC2)nc1-c1cccnc1 [Compound 9t, N-(5-([1,1′-biphenyl]-4-carbonyl)-4-(pyridin-3-yl)thiazol-2-yl)-1-(benzo[d][1,3]dioxol-5-yl)cyclopropane-1-carboxamide] | – | – | –
– | O=C(c1ccccc1)c1sc(NC(=O)C2(c3ccc(Cl)cc3)CC2)nc1-c1ccccc1 [Compound 18] | – | – | poorly effective
– | CCOC(=O)c1sc(NC(=O)C2(c3ccc4c(c3)OCO4)CC2)nc1-c1cccc(Cl)c1 [Compound 2c] | 550 nM | 6.26 | –
– | O=C(Nc1nc(-c2ccc(O)cc2)cs1)C1(c2ccc3c(c2)OC(F)(F)O3)CC1 [Compound 6d] | 1700 nM | 5.77 | –
– | Cc1sc(NC(=O)C2(c3ccc4c(c3)OCO4)CC2)nc1-c1ccc(O)cc1 [Compound 5d] | 3900 nM | 5.41 | –
– | CC(=O)Nc1ccc(-c2csc(NC(=O)C3(c4ccc5c(c4)OCO5)CC3)n2)cc1 [Compound 5g] | > 5000 nM and 5000 nM | 5.30 | –
– | Cc1sc(NC(=O)C2(c3ccc4c(c3)OCO4)CC2)nc1-c1ccc(C(=O)O)cc1 [Compound 5f] | 2900 nM | 5.54 | –
